Our source for the IC50 values is patent publication US5869476A, “Pyrimidinone derivatives” (Boryung Pharmaceutical Co., Ltd., priority 1994, dated 1999).

This assay concerns the target T1, angiotensin II receptor (Oryctolagus cuniculus, UniProt P34976).
T1 construct: The aorta was cut into 3~4 mm to form ring samples; from tissue; host or cells: isolated aorta rings of New Zealand White rabbits
T1 sequence (P34976 1-359): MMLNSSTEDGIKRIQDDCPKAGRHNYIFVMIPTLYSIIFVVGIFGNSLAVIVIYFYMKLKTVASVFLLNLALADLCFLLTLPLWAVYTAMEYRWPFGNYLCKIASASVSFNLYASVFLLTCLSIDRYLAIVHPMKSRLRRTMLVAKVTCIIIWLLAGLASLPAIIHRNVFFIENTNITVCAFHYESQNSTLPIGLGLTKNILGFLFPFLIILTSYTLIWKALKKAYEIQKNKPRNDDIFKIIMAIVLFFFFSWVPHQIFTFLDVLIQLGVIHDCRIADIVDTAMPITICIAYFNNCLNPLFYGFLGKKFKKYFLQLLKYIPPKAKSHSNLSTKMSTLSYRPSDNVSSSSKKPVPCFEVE
In words: inhibition of angiotensin II induced contraction of isolated rabbit aorta rings. It is filed as cell-based, New Zealand White rabbit. The conditions noted are these: test compound incubated 20 minutes, 37° C., pH 7.4, read-out: IC50 (concentration being required to inhibit angiotensin II induced contraction by 50%). In outline:
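Rabbit aortic rings in Krebs-Henseleit, 37 °C, pH 7.4, 2 g tension, contracted with Angiotensin II […] three times, the third serving as control. Compound incubated 20 min before rechallenge; IC50 is concentration inhibiting Angiotensin II contraction by 50%.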
With `CCCCc1nc(C)c(CCC(=O)N2CCCC(C)(C)C2)c(=O)n1Cc1ccc(-c2ccccc2-c2nn[nH]n2)cc1` [Compound 65, 2-n-butyl-5-[2'-(3",3"-dimethylpiperidino)carbonylethyl]-6-methyl-3-[[2'-(1H-tetrazol-5-yl)biphenyl-4-yl]methyl]-pyrimidin-4-(3H)-one], the IC50 was found to be 7.6 nM. For `CCCCc1nc(C)c(CCC(=O)N2CCC(C(=O)OCC)CC2)c(=O)n1Cc1ccc(-c2ccccc2-c2nn[nH]n2)cc1` [Compound 66, 2-n-butyl-5-[2'-(4"-ethoxycarbonylpiperidino)carbonylethyl]-6-methyl-3-[[2'-(1H-tetrazol-5-yl)biphenyl-4-yl]methyl]-pyrimidin-4-(3H)-one], the IC50 amounted to 9.7 nM. The same measure for `CCCCc1nc(C)c(CCC(=O)N2CCCCC2C(=O)OCC)c(=O)n1Cc1ccc(-c2ccccc2-c2nn[nH]n2)cc1` (stereo not shown) [Compound 67, 2-n-butyl-5-[2'-(2"-ethoxycarbonylpiperidino)carbonylethyl]-6-methyl-3-[[2'-(1H-tetrazol-5-yl)biphenyl-4-yl]methyl]-pyrimidin-4-(3H)-one]: 30.4 nM; for `CCCCc1nc(C)c(CCC(=O)N2CCC(C(N)=O)CC2)c(=O)n1Cc1ccc(-c2ccccc2-c2nn[nH]n2)cc1` [Compound 68, 2-n-butyl-5-[2'-(4"-aminocarbonylpiperidino)carbonylethyl]-6-methyl-3-[[2'-(1H-tetrazol-5-yl)biphenyl-4-yl]methyl]-pyrimidin-4-(3H)-one]: 2.29 nM; for `CCCCc1nc(C)c(CCC(=O)N2CCCC(C(=O)N(CC)CC)C2)c(=O)n1Cc1ccc(-c2ccccc2-c2nn[nH]n2)cc1` (stereo not shown) [Compound 69, 2-n-butyl-5-[2'-(3"-diethylaminocarbonylpiperidino)carbonylethyl]-6-methyl-3-[[2'-(1H-tetrazol-5-yl)biphenyl-4-yl]methyl]-pyrimidin-4-(3H)-one]: 10.7 nM. The value for `CCCCc1nc(C)c(CCC(=O)N2CCCCCC2)c(=O)n1Cc1ccc(-c2ccccc2-c2nn[nH]n2)cc1` [Compound 70, 2-n-butyl-5-(2'-hexamethyleneiminocarbonylethyl)-6-methyl-3-[[2'-(1H-tetrazol-5-yl)biphenyl-4-yl]methyl]-pyrimidin-4-(3H)-one] was 11.6 nM; that for `CCCCc1nc(C)c(CCC(=O)N2CCCCCCC2)c(=O)n1Cc1ccc(-c2ccccc2-c2nn[nH]n2)cc1` [Compound 71, 2-n-butyl-5-(2'-heptamethyleneiminocarbonylethyl)-6-methyl-3-[[2'-(1 H-tetrazol-5-yl)biphenyl-4-yl]methyl]-pyrimidin-4-(3H)-one] was 16.8 nM; that for `CCCCc1nc(C)c(CC(=O)N2CCSC2)c(=O)n1Cc1ccc(-c2ccccc2-c2nn[nH]n2)cc1` [Compound 72, 2-n-butyl-5-thiazolidinocarbonylmethyl-6-methyl-3-[[2'-(1H-tetrazol-5-yl)biphenyl-4-yl]methyl]-pyrimidin-4-(3H)-one] was 9.13 nM.

On to `CCCCc1nc(C)c(CC(=O)N2CCOCC2)c(=O)n1Cc1ccc(-c2ccccc2-c2nn[nH]n2)cc1` [Compound 73, 2-n-butyl-5-morpholinocarbonylmethyl-6-methyl-3-[[2'-(1H-tetrazol-5-yl)biphenyl-4-yl]methyl]-pyrimidin-4-(3H)-one], for which the IC50 is 1.75 nM. The same measure for `CCCCc1nc(C)c(CC(=O)N2C(C)COCC2C)c(=O)n1Cc1ccc(-c2ccccc2-c2nn[nH]n2)cc1` (stereo not shown) [Compound 74, 2-n-butyl-5-(3',5'-dimethylmorpholinocarbonylmethyl)-6-methyl-3-[[2'-(1H-tetrazol-5-yl)biphenyl-4-yl]methyl]-pyrimidin-4-(3H)-one]: 1.03 nM; for `CCCCc1nc(C)c(CC(=O)N2CCSCC2)c(=O)n1Cc1ccc(-c2ccccc2-c2nn[nH]n2)cc1` [Compound 75, 2-n-butyl-5-thiomorpholinocarbonylmethyl-6-methyl-3-[[2'-(1H-tetrazol-5-yl)biphenyl-4-yl]methyl]-pyrimidin-4-(3H)-one]: 2.76 nM; for `CCCCc1nc(C)c(CC(=O)N2CCN(C)CC2)c(=O)n1Cc1ccc(-c2ccccc2-c2nn[nH]n2)cc1` [Compound 76, 2-n-butyl-5-(4'-methylpiperazinocarbonylmethyl)-6-methyl-3-[[2'-(1H-tetrazol-5-yl)biphenyl-4-yl]methyl]-pyrimidin-4-(3H)-one]: 3.59 nM. The value for `CCCCc1nc(C)c(CC(=O)N2CCN(C(C)=O)CC2)c(=O)n1Cc1ccc(-c2ccccc2-c2nn[nH]n2)cc1` [Compound 77, 2-n-butyl-5-(4'-acetylpiperazinocarbonylmethyl)-6-methyl-3-[[2'-(1H-tetrazol-5-yl)biphenyl-4-yl]methyl]-pyrimidin-4-(3H)-one] was 2.17 nM; that for `CCCCc1nc(C)c(CCC(=O)N2CCOCC2)c(=O)n1Cc1ccc(-c2ccccc2-c2nn[nH]n2)cc1` [Compound 78, 2-n-butyl-5-(2'-morpholinocarbonylethyl)-6-methyl-3-[[2'-(1H-tetrazol-5-yl)biphenyl-4-yl]methyl]-pyrimidin-4-(3H)-one] was 5.22 nM. The value for `CCCCc1nc(C)c(CCC(=O)N2C(C)COCC2C)c(=O)n1Cc1ccc(-c2ccccc2-c2nn[nH]n2)cc1` (stereo not shown) [Compound 79, 2-n-butyl-5-[2'-(3",5"-dimethylmorpholino)carbonylethyl]-6-methyl-3-[[2'-(1H-tetrazol-5-yl)biphenyl-4-yl]methyl]-pyrimidin-4-(3H)-one] was 13.1 nM. `CCCCc1nc(C)c(CCC(=O)N2CCSCC2)c(=O)n1Cc1ccc(-c2ccccc2-c2nn[nH]n2)cc1` [Compound 80, 2-n-butyl-5-(2'-thiomorpholinocarbonylethyl)-6-methyl-3-[[2'-(1H-tetrazol-5-yl)biphenyl-4-yl]methyl]-pyrimidin-4-(3H)-one]: the IC50 came out at 4.06 nM. The same measure for `CCCCc1nc(C)c(CCC(=O)N2CCN(C(C)=O)CC2)c(=O)n1Cc1ccc(-c2ccccc2-c2nn[nH]n2)cc1` [Compound 81, 2-n-butyl-5-[2'-(4"-acetylpiperazino)carbonylethyl]-6-methyl-3-[[2'-(1H-tetrazol-5-yI)biphenyl-4-yl]methyl]-pyrimidin-4-(3H)-one]: 9.87 nM. The value for `CCCCc1nc(C)c(CCC(=O)N2CCN(c3ccccn3)CC2)c(=O)n1Cc1ccc(-c2ccccc2-c2nn[nH]n2)cc1` [Compound 82, 2-n-butyl-5-[2'-(4"-(2'"-pyridyl)piperazino)carbonylethyl]-6-methyl-3-[[2'-(1H-tetrazol-5-yl)biphenyl-4-yl]methyl]-pyrimidin-4-(3H)-one] was 53 nM; that for `CCCCc1nc(C)c(CCC(=O)N2CCN(C/C=C/c3ccccc3)CC2)c(=O)n1Cc1ccc(-c2ccccc2-c2nn[nH]n2)cc1` [Compound 83, 2-n-butyl-5-[2'-(4"-trans-cinnamylpiperazino)carbonylethyl]-6-methyl-3-[[2'-(1H-tetrazol-5-yl)biphenyl-4-yl]methyl]-pyrimidin-4-(3H)-one] was 151 nM.
